“And” between values parts separate entries of the source, which are not always exact repeats. Identical values can stand only once.
These compounds were tested on P. falciparum 3D7 growth, pLDH absorbance (assay: P. falciparum 3D7 growth inhibition, dose response, strain 3D7 (AID 2305)).

Compound	IC50
Cn1nc(-c2cccc(CNCCc3cccs3)c2)c2cnc(NC3CCCC3)nc21	1890 nM
CCC1CN2CCc3c([nH]c4ccc(OC)cc34)[C@@H]2C[C@@H]1CC1NCCc2cc(OC)c(OC)cc21 (some centres undefined)	860 nM
Cc1cc(-c2cccc3c(C(=O)N4CCc5cc6nccc(N7CCN8CCC[C@H]8C7)c6cc54)cccc23)cc(C)n1	710 nM
Cc1cccc(-c2nn(-c3ccccc3)cc2C(=O)Nc2nnc(C)o2)c1	1160 nM
CCN1CCC(N(Cc2ccc(-c3ccc(C(F)(F)F)cc3)cc2)C(=O)Cn2c(SCc3ccc(F)cc3)nc(=O)c3c2CCC3)CC1	990 nM
CN1CCN(CCCN(Cc2csc(-c3ccc(CNCc4ccccc4)cc3)n2)C(=O)Nc2cc(Cl)cc(Cl)c2)CC1	700 nM
O=C(Nc1cccc(-c2ccc(-c3nc4ccc(C(F)(F)F)cc4[nH]3)cc2)c1)c1cnc[nH]1	970 nM
COc1cc(NC2=C(c3ccccc3)C(=O)c3ccccc32)ccn1	360 nM
O=C(/C=C/c1ccc(Cl)c(Cl)c1)NCCCCCCN1CCN(C(=O)Nc2ccc(Cl)c(Cl)c2)CC1	930 nM
CCCCN(Cc1cccc(C(F)(F)F)c1Cl)c1ccc(C(O)(C(F)(F)F)C(F)(F)F)cc1	960 nM
CCOc1ccc2nc(C)cc(NN=Cc3ccccc3)c2c1	780 nM
CC1(C)N=C(N)N=C(N)N1OCC1COc2ccccc2O1 (centres undefined)	30 nM
COc1ccc(NC(=O)c2ccc(Br)c(C)c2)cc1N1CCN(CCCc2c[nH]c3ccccc23)CC1	380 nM
Nc1ccnc2ccc(OCCCCCCc3ccccc3)cc12	520 nM
COc1cc2nc(NCCc3ccccc3)nc(NCc3ccc(C#N)cc3)c2cc1OC	150 nM
CC(Nc1ccc2c(c1)OCCO2)C(=O)Nc1cc(C(F)(F)F)ccc1N1CCOCC1 (centres undefined)	410 nM
CN(C)c1cc2c(Nc3ccc4nc(Cc5ccccc5)[nH]c4c3)ncnc2cn1	1140 nM
COc1cc2nc(NCCN3CCOCC3)n3nc(-c4ccccc4)nc3c2cc1OC	220 nM
N#Cc1ccc(N(CCOc2ccc3c(c2)CCC(=O)N3)Cc2ccccc2C(F)(F)F)cc1C(F)(F)F	760 nM
COc1ccc2nccc([C@@H](O)CN3CCC(NCc4cn5cc(F)ccc5n4)CC3)c2c1	780 nM
CC(=O)Nc1ccc2[nH]cc(C3CCN(CC4CCC(NC(=O)/C=C/c5ccc(Cl)c(Cl)c5)CC4)CC3)c2c1 (centres undefined)	440 nM and 720 nM
Nc1nc(Nc2ccc(Cl)cc2)nc2ccccc12	730 nM
CCCCOC(=O)C1=C(C)NC2=C(C(=O)CCC2)C1c1ccc(OC)c(Br)c1 (centres undefined)	600 nM
CCCCCCCNC(=O)NCC1CCCN(CCCCCNC(=O)/C=C/c2ccc(Cl)c(Cl)c2)C1 (centres undefined)	1040 nM
CCOC(=O)CC[C@@H](NC(=O)c1ccc(NCc2ccc3ccc4nc(C)[nH]c(=O)c4c3c2)cc1F)C(=O)N[C@@H](Cc1c[nH]c2ccccc12)C(=O)OCC	1030 nM

Compound	IC50
CCOC(=O)c1cc2c(CCN3C(=O)c4ccccc4C3=O)cn(C)c2cc1-c1ccncc1	580 nM
COc1ccc(Nc2nccc(N3CCC(NC(=O)Nc4cccc(C(C)=O)c4)C3)n2)cc1 (centres undefined)	820 nM
CCCN(CCC)CCCN(CCCN(CCC)CCC)c1cc(C)nc(Nc2ccc(Cl)cc2)n1	170 nM
O=C(Nc1ccc(Cl)cc1)N(CC1C[C@H]2CC[C@@H](C1)N2Cc1ccc(C(F)(F)F)cc1)c1ccc(N2CCOCC2)c(F)c1 (some centres undefined)	1070 nM
Cc1ccc(Cn2cnc3cc(C(=O)Nc4ccc(-c5cccc(CN(C)C)c5)cc4)ccc3c2=O)o1	630 nM
C=CCOC(=O)N1CCC(CNCc2ccc(-c3cccc(-c4nc5c(C)cccc5[nH]4)c3)cc2)C1 (centres undefined)	120 nM
Cc1noc(C)c1-c1cccc(CNCc2ccc(-c3cccc(-c4nc5c(C)cccc5[nH]4)c3)cc2)c1	220 nM
c1ccc([C@H]2CN3CCSC3=N2)cc1	620 nM
COc1ccc2nc(C)cc(NN=Cc3cc(OC)c(OC)cc3OC)c2c1	740 nM
O=[N+]([O-])c1cccc(NC(=S)N2CCCN(Cc3ccc(Cl)cc3Cl)CC2)c1	930 nM
Cc1cccc2[nH]c(-c3ccc(-c4cccc(CNCCN(C)C)c4)cc3)nc12	680 nM
C1=C(c2c[nH]c3ccccc23)CCN(Cc2ccccc2)C1	1040 nM
CC(=O)c1cccc(S(=O)(=O)NCCCNc2nc3cc(C)cc(C)c3cc2C#N)c1	910 nM
COc1cc(NC(=O)N2CCOC(CCN3CCC(c4ccccc4)CC3)(c3ccc(Cl)c(Cl)c3)C2)cc(OC)c1OC (centres undefined)	70 nM
COc1ccc(S(=O)(=O)NC2CCN(c3ccc(C(F)(F)F)cc3NC(=O)OCC(C)C)CC2)cc1	1220 nM
Cc1[nH]c(C)c(-c2ccc(Oc3ccc(F)cc3)cc2)c(=O)c1Br	50 nM
COc1ccc2ncc(F)c([C@H](O)CN3CCC(NCc4ccc5c(c4)NC(=O)CO5)CC3)c2c1	170 nM
CS(=O)(=O)Nc1cccc(-c2cnc3[nH]cc(-c4ccc(CCC(=O)O)cc4)c3c2)c1	1060 nM
Cc1[nH]c(C)c(-c2ccc(-c3ccc(OC(F)(F)F)cc3)cc2)c(=O)c1Cl	40 nM
O=C(c1ccc([N+](=O)[O-])o1)N1CCN(c2nc3c(F)cc(F)cc3s2)CC1	970 nM
COc1ccc(-c2ccc(S(=O)(=O)Nc3cc4c(cc3OC(C)C)CCNCC4)cc2)cc1	970 nM
CC(=O)N1N=C(c2cccs2)Sc2c1nc(-c1ccc(Cl)cc1)n2C(C)=O	740 nM
CCN1CCC(N(Cc2ccc(-c3ccc(C(F)(F)F)cc3)cc2)C(=O)Cn2c(CCc3cccc(F)c3F)cc(=O)c3c2CCCC3)CC1	760 nM
Brc1ccc(C=NNc2nc3ccccc3[nH]2)cc1	700 nM
